Values joined by “and” are separate entries in the source; they are usually repeats but may differ in a detail not shown here. Equal entries are not always repeated. “Also recorded” adds a separate entry of the source. Where two headings read alike, the source gives them in different places.
Assays:
Type in all cases: cell-based, Plasmodium falciparum
NF54^G358S-2 parasites = assay: P. falciparum proliferation assay (72 h, flow cytometry, SYBR Green I/MitoTracker); conditions: for FC (IC50) / FC (IC90): NF54G358S-2 compared to NF54WT
Procedure: (§1) For the NF54-based lines and Dd2-B2-PfATP4^G358S and its parent, assays were initiated with cultures containing predominantly ring-stage parasites with a parasitaemia of 0.3% and a haematocrit of 1%. All assays using NF54 were performed in culture media containing 10% O + human serum. The duration of the assays was 72 h and the concentration of DMSO was <0.5% (v/v). Serial dilutions of the test compounds were performed using a Tecan D300e digital dispenser, with parasite cultures added manually. Parasite survival was assessed by flow cytometry on an Intellicyt iQue3 (Essen Bioscience), with 1× SYBR Green I (Invitrogen) and 200 nM MitoTracker Deep Red FM (Invitrogen) used to stain the nucleus and the mitochondria in live parasites, respectively. The gating strategy used to quantify parasite survival, performed using FlowJo version 10 (FlowJo LLC.), is illustrated in Supplementary Fig. 9. IC50 and IC90 values were calculated by linear interpolation of the dose-response data.

NF54^CTL parasites = assay: as above; conditions: for FC (IC50) / FC (IC90): NF54CTL compared to NF54WT
Procedure: as §1

NF54^G358S-1 parasites = assay: as above; conditions: for FC (IC50) / FC (IC90): NF54G358S-1 compared to NF54WT
Procedure: as §1

NF54^WT parasites = assay: microbe, parasite or virus in culture; conditions: for FC (IC50) / FC (IC90): NF54WT, reference line
Procedure: as §1

[1] = test system: gene-edited NF54 lines (NF54^CTL, NF54^G358S-1, NF54^G358S-2); assay: P. falciparum proliferation assay, statements on several edited NF54 lines; conditions: all edited NF54 lines, including NF54CTL, vs NF54WT
Procedure: as §1, with “Two types of parasite proliferation assays were employed in this study, with both yielding highly consistent results. For” for “For”

[2] = test system: parasite lines with a G358S mutation in PfATP4; assay: P. falciparum proliferation assays, statements on all lines with the G358S mutation; conditions: G358S lines vs PfATP4 wild-type controls
Procedure: as §1, with “Two types of parasite proliferation assays were employed in this study, with both yielding highly consistent results. For” for “For”
(§2) For experiments with all other parasites, the effects of compounds of interest on parasite proliferation was measured in 96-well plates containing serial dilutions of the compounds in culture medium, with a fluorescent DNA-intercalating dye used to detect surviving parasites. The assays were initiated with erythrocytes infected with predominantly ring-stage parasites, and the starting parasitaemia and haematocrit were both 1%. […] Fluorescence was measured using a FLUOstar OPTIMA plate reader (BMG LABTECH), with OPTIMA version 2.20R2 and MARS Data Analysis Software version 3.01 R2 (BMG LABTECH).

[3] = test system: MMV665949-selected Culture 1 (from Dd2-Polδ; not cloned); assay: P. falciparum proliferation assay (72 h, fluorescent DNA-intercalating dye); conditions: n = 4
Procedure: as §2

Dd2-Polδ parasites = assay: as above
Procedure: (§3) For experiments with all other parasites, the effects of compounds of interest on parasite proliferation was measured in 96-well plates containing serial dilutions of the compounds in culture medium, with a fluorescent DNA-intercalating dye used to detect surviving parasites. The assays were initiated with erythrocytes infected with predominantly ring-stage parasites, and the starting parasitaemia and haematocrit were both 1%.

[4] = test system: Dd2-Polδ-PfATP4^G358S parasites; assay: as above
Procedure: as §3

[5] = NF54G358S-2 parasites, individual experiments, read-out: IC50 values
[6] = NF54G358S-2 parasites, individual experiments, read-out: IC90 values
[7] = Plasmodium falciparum, NF54, NF54G358S-2 parasites, individual experiments, read-out: IC50 values
[8] = Plasmodium falciparum, NF54, NF54G358S-2 parasites, individual experiments, read-out: IC90 values
[9] = Plasmodium falciparum, NF54, NF54G358S-2 parasites, mean of the experiments, read-out: IC50 values, MEAN
[10] = Plasmodium falciparum, NF54, NF54G358S-2 parasites, mean of the experiments, read-out: IC90 values, MEAN
[11] = NF54CTL parasites, individual experiments, read-out: IC50 values
[12] = NF54CTL parasites, individual experiments, read-out: IC90 values
[13] = Plasmodium falciparum, NF54, NF54CTL parasites, individual experiments, read-out: IC50 values
[14] = Plasmodium falciparum, NF54, NF54CTL parasites, individual experiments, read-out: IC90 values
[15] = Plasmodium falciparum, NF54, NF54CTL parasites, mean of the experiments, read-out: IC50 values, MEAN
[16] = Plasmodium falciparum, NF54, NF54CTL parasites, mean of the experiments, read-out: IC90 values, MEAN
[17] = NF54G358S-1 parasites, individual experiments, read-out: IC50 values
[18] = NF54G358S-1 parasites, individual experiments, read-out: IC90 values
[19] = Plasmodium falciparum, NF54, NF54G358S-1 parasites, individual experiments, read-out: IC50 values
[20] = Plasmodium falciparum, NF54, NF54G358S-1 parasites, individual experiments, read-out: IC90 values
[21] = Plasmodium falciparum, NF54, NF54G358S-1 parasites, mean of the experiments, read-out: IC50 values, MEAN
[22] = Plasmodium falciparum, NF54, NF54G358S-1 parasites, mean of the experiments, read-out: IC90 values, MEAN
[23] = NF54WT parasites, individual experiments, read-out: IC50 values
[24] = NF54WT parasites, individual experiments, read-out: IC90 values
[25] = Plasmodium falciparum, NF54, NF54WT parasites, individual experiments, read-out: IC50 values
[26] = Plasmodium falciparum, NF54, NF54WT parasites, mean of the experiments, read-out: IC50 values, MEAN
[27] = Plasmodium falciparum, NF54, NF54WT parasites, mean of the experiments, read-out: IC90 values, MEAN

Compound | FC (IC50) (NF54^G358S-2 parasites) [fold] | FC (IC90) (NF54^G358S-2 parasites) [fold] | IC50 (NF54^G358S-2 parasites; [5]) | IC90 (NF54^G358S-2 parasites; [6]) | IC50 (NF54^G358S-2 parasites; [7]) [nM] | IC90 (NF54^G358S-2 parasites; [8]) [nM] | IC50 (NF54^G358S-2 parasites; [9]) [nM] | IC90 (NF54^G358S-2 parasites; [10]) [nM] | FC (IC50) (NF54^CTL parasites) [fold] | FC (IC90) (NF54^CTL parasites) [fold] | IC50 (NF54^CTL parasites; [11]) | IC90 (NF54^CTL parasites; [12]) | IC50 (NF54^CTL parasites; [13]) [nM] | IC90 (NF54^CTL parasites; [14]) [nM] | IC50 (NF54^CTL parasites; [15]) [nM] | IC90 (NF54^CTL parasites; [16]) [nM] | FC (IC50) (NF54^G358S-1 parasites) [fold] | FC (IC90) (NF54^G358S-1 parasites) [fold] | IC50 (NF54^G358S-1 parasites; [17]) | IC90 (NF54^G358S-1 parasites; [18]) | further results
COc1nc(C(C)C)ccc1-c1cnc2sc(N3CCC(O)(CN)CC3)nn12 [INE963] | 1.4 | 1.4 | 1.11 nM and 0.93 nM and 1.44 nM | 2.37 nM and 2.77 nM and 3.43 nM | 1.1 | 2.11 | 1.15 | 2.7 | 1.5 | 1.3 | 1.15 nM and 1.14 nM and 1.42 nM | 2.46 nM and 2.4 nM and 3.34 nM | 1.02 | 1.87 | 1.18 | 2.5 | 1.4 | 1.4 | 1.09 nM and 1.1 nM and 1.41 nM | 2.82 nM and 2.85 nM and 3.37 nM | IC50 (NF54^CTL parasites; Plasmodium falciparum, NF54, NF54CTL, 10% human serum, read-out: IC50 ± SEM): 1.2 ± 0.1 nM; IC50 (NF54^G358S-1 parasites; [19]): 0.91 nM; IC90 (NF54^G358S-1 parasites; [20]): 1.87 nM; IC50 (NF54^G358S-1 parasites; [21]): 1.13 nM; IC90 (NF54^G358S-1 parasites; [22]): 2.7 nM; IC50 (NF54^WT parasites; [23]): 0.63 nM and 0.74 nM and 1.17 nM; IC90 (NF54^WT parasites; [24]): 1.68 nM and 1.36 nM and 1.75 nM and 2.98 nM; FC (IC50) (NF54^WT parasites): 1.0 fold; FC (IC90) (NF54^WT parasites): 1.0 fold; IC50 (NF54^WT parasites; [25]): 0.7 nM; IC50 (NF54^WT parasites; [26]): 0.81 nM; IC90 (NF54^WT parasites; [27]): 1.9 nM; IC50 (NF54^WT parasites; Plasmodium falciparum, NF54, NF54WT, 10% human serum, read-out: IC50 ± SEM): 0.8 ± 0.1 nM; fold increase in IC50 value [1]: 1.4-1.5 fold; effect of the G358S mutation in PfATP4 on parasite susceptibility [2]: no impact; also recorded: no effect
Oc1ccc(C(=C(Cl)Cl)c2ccc(O)cc2)cc1 [MMV665949] | – | – | – | – | – | – | – | – | – | – | – | – | – | – | – | – | – | – | – | – | IC50 fold higher than for parental Dd2-Polδ ([3]; MMV665949-selected Culture 1, paired experiments): 10.7 ± 2.0 fold; IC50 ([3]; MMV665949-selected Culture 1, mean ± SEM, read-out: IC50): 44 ± 7 µM; IC50 (Dd2-Polδ parasites; Dd2-Polδ, Supplementary Table 1, Set 2, read-out: Mean IC50 value ± SEM for growth inhibition): 4.27 µM; IC50 (Dd2-Polδ parasites; parental Dd2-Polδ, paired with MMV665949-selected Culture 1, n = 4, read-out: IC50): 4.3 ± 0.7 µM; IC50 fold higher than that of Dd2-Polδ parent ([4]; Dd2-Polδ-PfATP4G358S vs Dd2-Polδ, mean ± SEM): no significant change; IC50 ([4]; Dd2-Polδ-PfATP4G358S, Supplementary Table 1, Set 2, read-out: Mean IC50 value ± SEM for growth inhibition): 4.87 ± 0.88 µM
Clc1ccc2c(N3CCN(CCCN4CCN(c5ccnc6cc(Cl)ccc56)CC4)CC3)ccnc2c1 [Piperaquine] | 0.9 | 1.1 | 24 nM and 13.5 nM and 13.3 nM | 48.2 nM and 27.4 nM and 26.7 nM | 21.3 | 30.8 | 18 | 33.3 | 0.9 | 1.2 | 20.9 nM and 14.5 nM and 11.8 nM | 37.3 nM and 28.1 nM and 26.3 nM | 21.9 | 45.9 | 17.3 | 34.4 | 0.9 | 1.1 | 22.2 nM and 14.8 nM and 12.9 nM | 43.7 nM and 27.9 nM and 26.4 nM | IC50 (NF54^G358S-1 parasites; [19]): 20.8 nM; IC90 (NF54^G358S-1 parasites; [20]): 34.2 nM; IC50 (NF54^G358S-1 parasites; [21]): 17.7 nM; IC90 (NF54^G358S-1 parasites; [22]): 33 nM; IC50 (NF54^WT parasites; [23]): 22 nM and 14.7 nM and 19.4 nM; IC90 (NF54^WT parasites; [24]): 29.8 nM and 27.5 nM and 28.8 nM; FC (IC50) (NF54^WT parasites): 1.0 fold; FC (IC90) (NF54^WT parasites): 1.0 fold; IC50 (NF54^WT parasites; [25]): 22.7 nM; IC90 (NF54^WT parasites; Plasmodium falciparum, NF54, NF54WT parasites, individual experiments, read-out: IC90 values): 30 nM; IC50 (NF54^WT parasites; [26]): 19.7 nM; IC90 (NF54^WT parasites; [27]): 29 nM; effect of the G358S mutation in PfATP4 on parasite susceptibility [2]: no effect
COc1ccc2nc3cc(Cl)ccc3c(Nc3cc(CN4CCCC4)c(O)c(CN4CCCC4)c3)c2n1 [Pyronaridine] | 1.2 | 1.1 | 1.86 nM and 1.73 nM and 2.02 nM | 2.89 nM and 2.85 nM and 2.91 nM | 1.25 | 2.63 | 1.7 | 2.82 | 1.2 | 1.1 | 1.43 nM and 1.8 nM and 1.81 nM | 2.8 nM and 2.91 nM | 1.47 | 2.85 | 1.6 | 2.86 | 1.3 | 1.1 | 1.77 nM and 2.02 nM and 2.17 nM | 2.9 nM and 3.07 nM and 3.12 nM | IC90 (NF54^G358S-2 parasites; Plasmodium falciparum, NF54, NF54G358S-2, 10% human serum, read-out: IC90 ± SEM): 2.8 ± 0.1 nM; IC90 (NF54^CTL parasites; Plasmodium falciparum, NF54, NF54CTL, 10% human serum, read-out: IC90 ± SEM): 2.9 ± 0.02 nM; IC50 (NF54^G358S-1 parasites; [19]): 1.24 nM; IC90 (NF54^G358S-1 parasites; [20]): 2.64 nM; IC50 (NF54^G358S-1 parasites; [21]): 1.8 nM; IC90 (NF54^G358S-1 parasites; [22]): 2.93 nM; IC50 (NF54^WT parasites; [23]): 0.91 nM and 1.08 nM and 1.42 nM and 2.14 nM; IC90 (NF54^WT parasites; [24]): 1.44 nM and 2.14 nM and 2.78 nM and 4.07 nM; FC (IC50) (NF54^WT parasites): 1.0 fold; FC (IC90) (NF54^WT parasites): 1.0 fold; IC50 (NF54^WT parasites; [26]): 1.4 nM; IC90 (NF54^WT parasites; [27]): 2.61 nM; IC90 (NF54^WT parasites; Plasmodium falciparum, NF54, NF54WT, 10% human serum, read-out: IC90 ± SEM): 2.6 ± 0.6 nM; effect of the G358S mutation in PfATP4 on parasite susceptibility [2]: no effect
